Reference: patent US11390621B2, “Chiral indole compounds and their use” (ARIAGEN, INC., priority 2019, dated 2022)
Several values for one entry are separate records, joined by “and”; a condition that tells them apart may be missing. Equal values may be shown once. Read-outs that look alike come from different tables or passages of the source.

Legend:
[1] = system: EMT-6 cancer cells; experiment: EMT-6 subcutaneous syngeneic mouse tumor model (Example 48); format: in vivo, BALB/C mice; details: 40 mg/kg, IP
Method: This example describes in vivo studies that evaluated the anti-cancer efficacy of ARI-143, ARI-164, ARI-165, and ARI-186 in syngeneic mouse tumor models. Mice implanted subcutaneously with EMT-6 or Pan02 cancer cells were treated with ARI-143, ARI-164, ARI-165, ARI-186, or vehicle controls, as described below.
A monolayer culture of tumor cells was maintained in vitro in DMEM or RPMI1640 medium supplemented with 10% fetal bovine serum at 37° C. in an atmosphere of 5% CO2. Cells in exponential growth phase were harvested and quantitated by cell counter before tumor inoculation. The cell lines used are described in the table below.
Two subcutaneous syngeneic mouse tumor models were generated by innoculating female BALB/C or C57BL/6 mice with cancer cells at their right lower or front flank as detailed in the table below:
Each mouse was inoculated subcutaneously with tumor cells in 0.1 mL of PBS. Treatments were started when the mean tumor size reached approximately 80-120 mm^3 (around 100 mm^3). The administration of the test compounds and the animal number in each study group are shown in the study design. The date of tumor cell inoculation was denoted as day 0.
ARI-143, ARI-164, and ARI-165 were dissolved in DMSO at the final concentration of 26.7 mg/ml and stored at room temperature. In Pan02 studies of ARI-164 and ARI-186, both compounds were dissolved in 100% PEG400.
Randomization of animals was started when the mean tumor size reached approximately 90 mm^3 to form the mouse study groups. The randomization was-performed based on “Matched distribution” method using the multi-task method (StudyDirector™ software, version 3.1.399.19)/randomized block design. The mouse groups (ten in each group) were treated with vehicle (DMSO or PEG400) or the test compounds at a dose of 26-80 mg/kg by intraperitoneal (i.p.). injection, QD for 28 days or longer.
After tumor cell inoculation, the mice were checked daily for morbidity and mortality. During routine monitoring, the mice were checked for tumor growth and any effects of the treatment on behavior such as mobility, food and water consumption, body weight gain/loss (body weights were measured twice per week after randomization), eye/hair matting, and any other abnormalities. Mortality and observed clinical signs were recorded for individual mice in detail.
Tumor volumes were measured twice per week in two dimensions using a caliper, and the volume was expressed in mm^3 using the formula: V=(L×W×W)/2, where V is tumor volume, L is tumor length (the longest tumor dimension) and W is tumor width (the longest tumor dimension perpendicular to L). Dosing as well as tumor and body weight measurements was conducted in a Laminar Flow Cabinet. The body weights and tumor volumes were measured by using StudyDirector™ software (version 3.1.399.19). Dosing Holiday
Tumor growth inhibition percentage (TGI %) is an indicator for antitumor activity of a drug compound, and expressed as: TGI(%)=100×(1−T/C), where T and C are the mean tumor volume (or weight) of the treated and control groups, respectively, on a given day. Statistical analysis of the difference in mean tumor volume (MTV) among the groups was conducted using the data collected on the day when the MTV of the vehicle group reached the humane endpoints, so that TGI could be derived for all or most mice enrolled in the study.

[2] = biological target: T1, CYP3A4 (Homo sapiens, UniProt P08684); experiment: CYP profiling: human liver microsomes with CYP3A4 inhibitor ketoconazole; format: in vitro ADME; design: % Compound Metabolized at 30 min, CYP3A4 Inhibitor: concentration or dose not given beside the values; details: HLMs; for % Inhibition Relative to Negative Control, 3A4: 30 min
T1 construct: from tissue; host or cells: human liver microsomes
Method: In order to investigate the contributions of CYP1A2 and CYP3A4 to the metabolism of the compounds of the present disclosure, human liver microsomes were incubated with the test compounds for 30 minutes in the presence of selective chemical inhibitors furafylline (1A2) and ketoconazole (3A4).

[3] = In vivo pharmacokinetic studies in rats; design: species or system SD rats; details: for Tmax: read-out: Tmax
How it was run: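 Mice and rats (N=3/group) dosed IV at 2 mg/kg in DMSO or PO at 10, 30 or 40 mg/kg in PEG400/Tween 80 50/50; PEG400/Kolliphor HS15/oleic acid 45/45/10 used for one repeat-dose rat study. Repeat dosing in rats was PO 10 mg/kg QD for 5 days. Plasma sampled pre-dose to 24 h post-dose, measured by HPLC.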

[4] = SD, rat, plasma, iv, 2 mg/kg, rats, single 2 mg/kg IV dose, Mean of 3 animals
[5] = SD, rat, plasma, iv, 2 mg/kg, rats, single 2 mg/kg IV dose, individual animal
[6] = Sprague-Dawley (SD), rat, plasma, iv, 2 mg/kg, rats, single 2 mg/kg IV dose, Mean of 3 animals
[7] = Sprague-Dawley (SD), rat, plasma, po, 10 mg/kg, rats, single 10 mg/kg PO dose, Mean of 3 animals
[8] = Sprague-Dawley (SD), rat, plasma, po, 10 mg/kg, rats, single 10 mg/kg PO dose, individual animal
[9] = rats, single 2 mg/kg IV dose, individual animal, 2 mg/kg
[10] = rats, single 10 mg/kg PO dose, individual animal, 10 mg/kg

T1 sequence (P08684 whole entry): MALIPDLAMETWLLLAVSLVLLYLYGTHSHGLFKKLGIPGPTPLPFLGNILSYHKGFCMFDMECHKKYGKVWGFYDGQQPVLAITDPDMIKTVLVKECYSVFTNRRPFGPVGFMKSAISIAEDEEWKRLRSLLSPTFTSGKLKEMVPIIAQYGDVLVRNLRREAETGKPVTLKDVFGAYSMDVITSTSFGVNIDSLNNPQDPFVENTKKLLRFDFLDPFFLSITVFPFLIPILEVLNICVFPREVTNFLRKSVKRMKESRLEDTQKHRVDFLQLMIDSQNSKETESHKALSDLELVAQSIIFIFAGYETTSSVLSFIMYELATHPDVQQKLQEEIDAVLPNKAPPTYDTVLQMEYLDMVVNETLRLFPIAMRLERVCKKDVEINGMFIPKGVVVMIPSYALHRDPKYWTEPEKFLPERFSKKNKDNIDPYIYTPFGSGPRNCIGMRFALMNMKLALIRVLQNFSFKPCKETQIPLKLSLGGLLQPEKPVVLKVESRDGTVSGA

CCC(=O)c1csc(C(=O)c2c[nH]c3cc(F)ccc23)n1 [ARI-143, 1-(2-(6-fluoro-1H-indole-3-carbonyl)thiazol-4-yl)propan-1-one]
TGI ([1]; (susp), study day 6): 0.1%
TGI ([1]; (susp), study day 10): −10.1%
TGI ([1]; (susp), study day 13): 0.6%
TGI ([1]; (susp), study day 17): 30.9%
TGI ([1]; (susp), study day 20): 41.0%
TGI ([1]; (susp), study day 24): 53.2%
TGI ([1]; (susp), study day 27): 51.8%
TGI ([1]; (susp), study day 31): 54.8%
% Compound Metabolized at 30 min, CYP3A4 Inhibitor [2]: 82% and 92%
% Inhibition Relative to Negative Control, 3A4 [2]: None

CC[C@H](O)c1csc(C(=O)c2c[nH]c3cc(F)ccc23)n1 [ARI-164, (S)-(6-Fluoro-1H-indol-3-yl)(4-(1-hydroxypropyl)thiazol-2-yl)methanone]
TGI ([1]; study day 6): 0.1%
TGI ([1]; study day 10): −10.8%
TGI ([1]; study day 13): −2.4%
TGI ([1]; study day 17): 20.8%
TGI ([1]; study day 20): 41.6%
TGI ([1]; study day 24): 54.7%
TGI ([1]; study day 27): 54.3%
TGI ([1]; study day 31): 56.2%
% Compound Metabolized at 30 min, CYP3A4 Inhibitor [2]: 34%
% Inhibition Relative to Negative Control, 3A4 [2]: 8%
AUC(0-inf) [3, 4]: 21.5 µg·h/mL
clearance [3, 4]: 0.0933 L/h/kg
AUC(0-t) ([3]; SD, rat, plasma, iv, 2 mg/kg, rats, single 2 mg/kg IV dose, Mean of 3 animals, read-out: AUClast): 21.4 µg·h/mL
AUC(0-inf) [3, 5]: 20.5 µg·h/mL
clearance [3, 5]: 0.0978 L/h/kg
half-life [3, 5]: 3.91 h
AUC(0-t) ([3]; SD, rat, plasma, iv, 2 mg/kg, rats, single 2 mg/kg IV dose, individual animal, read-out: AUClast): 20.3 µg·h/mL
Cmax ([3]; SD, rat, plasma, iv, 2 mg/kg, rats, single 2 mg/kg IV dose, individual animal, read-out: Cmax): 42.2 µg/mL
Tmax [3, 5]: 0.083 h
MRT inf [3, 6]: 1.69 h
MRT last [3, 6]: 1.63 h
half-life [3, 6]: 2.85 h
Cmax ([3]; Sprague-Dawley (SD), rat, plasma, iv, 2 mg/kg, rats, single 2 mg/kg IV dose, Mean of 3 animals, read-out: Cmax): 40.7 µg/mL
Tmax [3, 6]: 0.083 h
Vd ([3]; Sprague-Dawley (SD), rat, plasma, iv, 2 mg/kg, rats, single 2 mg/kg IV dose, Mean of 3 animals, read-out: Vss): 0.155 L/kg
AUC(0-inf) [3, 7]: 2.09 µg·h/mL
MRT inf [3, 7]: 2.87 h
MRT last [3, 7]: 2.85 h
half-life [3, 7]: 1.37 h
AUC(0-t) ([3]; Sprague-Dawley (SD), rat, plasma, po, 10 mg/kg, rats, single 10 mg/kg PO dose, Mean of 3 animals, read-out: AUClast): 2.09 µg·h/mL
Cmax ([3]; Sprague-Dawley (SD), rat, plasma, po, 10 mg/kg, rats, single 10 mg/kg PO dose, Mean of 3 animals, read-out: Cmax): 0.511 µg/mL
Tmax [3, 7]: 1.67 h
AUC(0-inf) [3, 8]: 2.11 µg·h/mL
MRT inf [3, 8]: 2.65 h
MRT last [3, 8]: 2.64 h
AUC(0-t) ([3]; Sprague-Dawley (SD), rat, plasma, po, 10 mg/kg, rats, single 10 mg/kg PO dose, individual animal, read-out: AUClast): 2.11 µg·h/mL
Cmax ([3]; Sprague-Dawley (SD), rat, plasma, po, 10 mg/kg, rats, single 10 mg/kg PO dose, individual animal, read-out: Cmax): 0.532 µg/mL
Tmax [3, 8]: 2 h
bioavailability ([3]; Sprague-Dawley (SD), rat, plasma, rats, 10 mg/kg PO vs 2 mg/kg IV, read-out: F (Bioavailability)): 1.94%
Cmax/Dose ([3]; male rats, repeat 30 mg/kg oral dose, Day 1, Mean): 16.6 kg·ng/mL/mg
Tlast^a ([3]; male rats, repeat 30 mg/kg oral dose, Day 1, Mean row): 8 h
Cmax/Dose ([3]; male rats, repeat 30 mg/kg oral dose, Day 7, Mean): 0.245 kg·ng/mL/mg
Tlast^a ([3]; male rats, repeat 30 mg/kg oral dose, Day 7, range printed in SD row): (1-4) hr
Cmax at 1 day ([3]; male, Sprague-Dawley (SD), rat, plasma, po, 30 mg/kg, male rats, repeat 30 mg/kg oral dose, Day 1, Mean): 0.499 µg/mL
Tmax at 1 day ([3]; male, Sprague-Dawley (SD), rat, plasma, po, 30 mg/kg, male rats, repeat 30 mg/kg oral dose, Day 1, Mean row, read-out: Tmax^a): 1 h
AUC(0-t) ([3]; male, Sprague-Dawley (SD), rat, plasma, po, 30 mg/kg, male rats, repeat 30 mg/kg oral dose, Day 1, Mean, read-out: AUCTlast): 1.43 µg·h/mL
Cmax at 7 day ([3]; male, Sprague-Dawley (SD), rat, plasma, po, 30 mg/kg, male rats, repeat 30 mg/kg oral dose, Day 7, Mean): 0.00293 µg/mL
Tmax at 7 day ([3]; male, Sprague-Dawley (SD), rat, plasma, po, 30 mg/kg, male rats, repeat 30 mg/kg oral dose, Day 7, Mean row): 1 h
decrease in exposure after repeat oral dosing ([3]; rats, 30 mg/kg QD): greater than 90%
AUCinf [3, 9]: 23 µg·h/mL and 21 µg·h/mL
AUClast [3, 9]: 23 µg·h/mL and 21 µg·h/mL
Cl [3, 9]: 0.0871 L/h/kg and 0.0951 L/h/kg
Cmax [3, 9]: 35.4 µg/mL and 44.5 µg/mL
MRTinf [3, 9]: 1.53 h and 2.5 h and 1.04 h
MRTlast [3, 9]: 1.38 h and 2.49 h and 1.03 h
T1/2 [3, 9]: 2.39 h and 2.24 h
Vss [3, 9]: 0.149 L/kg and 0.218 L/kg and 0.0986 L/kg
AUCinf [3, 10]: 2.66 µg·h/mL and 1.5 µg·h/mL
AUClast [3, 10]: 2.65 µg·h/mL and 1.5 µg·h/mL
Cmax [3, 10]: 0.646 µg/mL and 0.354 µg/mL
MRTinf [3, 10]: 3.05 h and 2.92 h
MRTlast [3, 10]: 3.02 h and 2.88 h
T1/2 [3, 10]: 0.56 h and 0.746 h and 2.82 h
